In patent US9593108B2, “Compounds and methods for antiviral treatment” (PTC Therapeutics, Inc., priority 2009, dated 2017) one finds IC50 and melting point data, which are given here for 29 compounds.

Where only a bound is given, the exact number is not on record here.

In the first data set the test system is HCV replicon RNA (GenBank Accession No. AJ242654). Description: HCV Replicon Assay (replicon RNA reduction and/or Fluc reporter signal). It is filed as cell-based, Hepatitis C virus. The note with it: Hepatitis C virus, 72 h, replicon-containing cells cultured with test compound for up to 3 days. The method, boiled down:
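Bicistronic replicon-containing cells cultured with compound for up to 3 days, with interferon as positive control. Inhibition quantified by replicon RNA reduction and/or Fluc reporter signal; IC50 values generally derived from replicon RNA reduction.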
`CC(C)NS(=O)(=O)c1ccc(-c2c(C#N)c3cc(Cl)cnc3n2CC2CC2)cc1` [Cpd 1, 4-[5-chloro-3-cyano-1-(cyclopropylmethyl)-1H-pyrrolo[2,3-b]pyridin-2-yl]-N-(propan-2-yl)benzenesulfonamide] had a half-inhibitory concentration (IC50) of less than 500 nM. As for `COc1cnc2c(c1)c(C#N)c(-c1ccc(S(=O)(=O)NC(C)C)cc1)n2CC1CC1` [Cpd 2, 4-[3-cyano-1-(cyclopropylmethyl)-5-methoxy-1H-pyrrolo[2,3-b]pyridin-2-yl]-N-(propan-2-yl)benzenesulfonamide], the IC50 is less than 500 nM. Turning to `COc1ccc2c(n1)c(C#N)c(-c1ccc(NS(=O)(=O)C(C)C)cc1)n2CC1CC1` [Cpd 3, N-{4-[3-cyano-1-(cyclopropylmethyl)-5-methoxy-1H-pyrrolo[3,2-b]pyridin-2-yl]phenyl}propane-2-sulfonamide], the half-inhibitory concentration (IC50) is less than 500 nM.

For `CC(C)NS(=O)(=O)c1ccc(-c2c(C#N)c3cc(F)cnc3n2CC2CC2)cc1` [Cpd 4, 4-[3-cyano-1-(cyclopropylmethyl)-5-fluoro-1H-pyrrolo[2,3-b]pyridin-2-yl]-N-(propan-2-yl)benzenesulfonamide], the IC50 fell in the range of 2000 to 5000 nM. `CN(Cc1ccccc1)c1cnc2c(c1)c(C#N)c(-c1ccc(NS(=O)(=O)C(C)(C)C)cc1)n2C1CCC1` [Cpd 352, N-(4-{5-[benzyl(methyl)amino]-3-cyano-1-cyclobutyl-1H-pyrrolo[2,3-b]pyridin-2-yl}phenyl)-2-methylpropane-2-sulfonamide] displayed an IC50 of 500 to 2000 nM.

With `CN(Cc1ccccc1)c1cnc2c(c1)c(C#N)c(-c1ccc(S(=O)(=O)NC(C)(C)C(F)(F)F)cc1)n2C1CCC1` [Cpd 353, 4-{5-[benzyl(methyl)amino]-3-cyano-1-cyclobutyl-1H-pyrrolo[2,3-b]pyridin-2-yl}-N-(1,1,1-trifluoro-2-methylpropan-2-yl)benzenesulfonamide], the IC50 fell in the range of 2000 to 5000 nM.

Turning to `Cc1cnc(-n2c(-c3ccc(S(=O)(=O)N[C@@H](C)C(F)(F)F)cn3)c(C#N)c3cc(C(F)(F)F)cnc32)cn1` [Cpd 354, 6-[3-cyano-1-(5-methylpyrazin-2-yl)-5-(trifluoromethyl)-1H-pyrrolo[2,3-b]pyridin-2-yl]-N-[(2S)-1,1,1-trifluoropropan-2-yl]pyridine-3-sulfonamide], the IC50 is less than 500 nM. Turning to `CC(C)(NS(=O)(=O)c1ccc(-c2c(C#N)c3cc(C(F)(F)F)cnc3n2C2CC2)cc1)C(F)(F)F` [Cpd 361, 4-[3-cyano-1-cyclopropyl-5-(trifluoromethyl)-1H-pyrrolo[2,3-b]pyridin-2-yl]-N-(1,1,1-trifluoro-2-methylpropan-2-yl)benzenesulfonamide], the IC50 lay within 2000 to 5000 nM. The compound `CC(C)(C)S(=O)(=O)Nc1ccc(-c2c(C#N)c3cc(C(F)(F)F)cnc3n2C2CC2)cc1` [Cpd 362, N-{4-[3-cyano-1-cyclopropyl-5-(trifluoromethyl)-1H-pyrrolo[2,3-b]pyridin-2-yl]phenyl}-2-methylpropane-2-sulfonamide] displayed an IC50 of 500 to 2000 nM. The compound `CC1(NS(=O)(=O)c2ccc(-c3c(C(N)=O)c4cc(Cl)cnc4n3C3CCC3)nc2)CC1` [Cpd 366, 5-chloro-1-cyclobutyl-2-{5-[(1-methylcyclopropyl)sulfamoyl]pyridin-2-yl}-1H-pyrrolo[2,3-b]pyridine-3-carboxamide] gave a concentration for half-maximal inhibition (IC50) of less than 500 nM.

Compound `C[C@H](NS(=O)(=O)c1cnc(-c2c(C(N)=O)c3cccnc3n2C2CCC2)nc1)C(F)(F)F` [Cpd 367, 1-cyclobutyl-2-(5-{[(2S)-1,1,1-trifluoropropan-2-yl]sulfamoyl}pyrimidin-2-yl)-1H-pyrrolo[2,3-b]pyridine-3-carboxamide] showed a half-inhibitory concentration (IC50) of 2000 to 5000 nM. In turn, `CC(C)(C)NS(=O)(=O)c1ccc(-c2c(C#N)c3cc(F)cnc3n2C2CCC2)cc1` [Cpd 369, N-tert-butyl-4-(3-cyano-1-cyclobutyl-5-fluoro-1H-pyrrolo[2,3-b]pyridin-2-yl)benzenesulfonamide] had a concentration for half-maximal inhibition (IC50) of 500 to 2000 nM. For the compound `C[C@H](NS(=O)(=O)c1ccc(-c2c(C#N)c3cc(S(C)(=O)=O)cnc3n2C2CCC2)nc1)C(F)(F)F` [Cpd 370, 6-[3-cyano-1-cyclobutyl-5-(methylsulfonyl)-1H-pyrrolo[2,3-b]pyridin-2-yl]-N-[(2S)-1,1,1-trifluoropropan-2-yl]pyridine-3-sulfonamide], the concentration for half-maximal inhibition (IC50) was less than 500 nM.

Take `CC(C)(NS(=O)(=O)c1ccc(-c2c(C(N)=O)c3cc(C4CC4)cnc3n2C2CCC2)cc1)C(F)(F)F` [Cpd 372, 1-cyclobutyl-5-cyclopropyl-2-{4-[(1,1,1-trifluoro-2-methylpropan-2-yl)sulfamoyl]phenyl}-1H-pyrrolo[2,3-b]pyridine-3-carboxamide]: the IC50 is less than 500 nM. Turning to `NC(=O)c1c(-c2ccc(S(=O)(=O)NC3(C(F)(F)F)CC3)cn2)n(C2CCC2)c2ncc(C3CC3)cc12` [Cpd 374, 1-cyclobutyl-5-cyclopropyl-2-(5-{[1-(trifluoromethyl)cyclopropyl]sulfamoyl}pyridin-2-yl)-1H-pyrrolo[2,3-b]pyridine-3-carboxamide], the concentration for half-maximal inhibition (IC50) is less than 500 nM. Turning to `CC(C)(C)NS(=O)(=O)c1ccc(-c2c(C(N)=O)c3cc(C4CC4)cnc3n2C2CCC2)cc1` [Cpd 375, 2-[4-(tert-butylsulfamoyl)phenyl]-1-cyclobutyl-5-cyclopropyl-1H-pyrrolo[2,3-b]pyridine-3-carboxamide], the IC50 was less than 500 nM. Compound `CCc1cnc2c(c1)c(C(N)=O)c(-c1ccc(S(=O)(=O)NC3(C(F)(F)F)CC3)cn1)n2C1CCC1` [Cpd 380, 1-cyclobutyl-5-ethyl-2-(5-{[1-(trifluoromethyl)cyclopropyl]sulfamoyl}pyridin-2-yl)-1H-pyrrolo[2,3-b]pyridine-3-carboxamide] displayed a half-inhibitory concentration (IC50) of less than 500 nM. Turning to `CCc1cnc2c(c1)c(C(N)=O)c(-c1ccc(S(=O)(=O)NC(C)(C)C)cc1)n2C1CCC1` [Cpd 381, 2-[4-(tert-butylsulfamoyl)phenyl]-1-cyclobutyl-5-ethyl-1H-pyrrolo[2,3-b]pyridine-3-carboxamide], the half-inhibitory concentration (IC50) was less than 500 nM. `CCc1cnc2c(c1)c(C(N)=O)c(-c1ccc(S(=O)(=O)NC(C)(C)C)cn1)n2C1CCC1` [Cpd 382, 2-[5-(tert-butylsulfamoyl)pyridin-2-yl]-1-cyclobutyl-5-ethyl-1H-pyrrolo[2,3-b]pyridine-3-carboxamide] had a 50% inhibitory concentration (IC50) of 500 to 2000 nM. In the case of `CSc1cnc2c(c1)c(C(=O)O)c(-c1ccc(S(=O)(=O)N[C@@H](C)C(F)(F)F)cn1)n2C1CCC1` [Cpd 386, 1-cyclobutyl-5-(methylsulfanyl)-2-(5-{[(2S)-1,1,1-trifluoropropan-2-yl]sulfamoyl}pyridin-2-yl)-1H-pyrrolo[2,3-b]pyridine-3-carboxylic acid], the concentration for half-maximal inhibition (IC50) was 500 to 2000 nM. `CSc1cnc2c(c1)c(C(N)=O)c(-c1ccc(S(=O)(=O)NC3(C(F)(F)F)CC3)cc1)n2C1CCC1` [Cpd 389, 1-cyclobutyl-5-(methylsulfanyl)-2-(4-{[1-(trifluoromethyl)cyclopropyl]sulfamoyl}phenyl)-1H-pyrrolo[2,3-b]pyridine-3-carboxamide]: the 50% inhibitory concentration (IC50) was less than 500 nM. `CSc1cnc2c(c1)c(C(=O)O)c(-c1ccc(S(=O)(=O)NC3(C(F)(F)F)CC3)cc1)n2C1CCC1` [Cpd 390, 1-cyclobutyl-5-(methylsulfanyl)-2-(4-{[1-(trifluoromethyl)cyclopropyl]sulfamoyl}phenyl)-1H-pyrrolo[2,3-b]pyridine-3-carboxylic acid] displayed an IC50 of 500 to 2000 nM.

Compound `CNc1cnc2c(c1)c(C#N)c(-c1ccc(S(=O)(=O)N[C@@H](C)C(F)(F)F)cn1)n2C1CCC1` [Cpd 394, 6-[3-cyano-1-cyclobutyl-5-(methylamino)-1H-pyrrolo[2,3-b]pyridin-2-yl]-N-[(2S)-1,1,1-trifluoropropan-2-yl]pyridine-3-sulfonamide] had an IC50 of less than 500 nM. `N#Cc1c(-c2ccc(S(=O)(=O)NC3(C(F)(F)F)CC3)cc2)n(C2CCC2)c2ncc(C(F)(F)F)cc12` [Cpd 397, 4-[3-cyano-1-cyclobutyl-5-(trifluoromethyl)-1H-pyrrolo[2,3-b]pyridin-2-yl]-N-[1-(trifluoromethyl)cyclopropyl]benzenesulfonamide] had a half-maximal inhibitory concentration (IC50) of less than 500 nM. With `COc1cnc2c(c1)c(C(N)=O)c(-c1ccc(S(=O)(=O)NC3(C)CC3)cn1)n2C1CCCC1` [Cpd 410, 1-cyclopentyl-5-methoxy-2-{5-[(1-methylcyclopropyl)sulfamoyl]pyridin-2-yl}-1H-pyrrolo[2,3-b]pyridine-3-carboxamide], the IC50 was in the range of 500 to 2000 nM. Regarding `CC(C)(C)S(=O)(=O)Nc1ccc(-c2c(C(N)=O)c3cc(C(F)(F)F)cnc3n2C2CCCCC2)cc1` [Cpd 445, 2-{4-[(tert-butylsulfonyl)amino]phenyl}-1-cyclohexyl-5-(trifluoromethyl)-1H-pyrrolo[2,3-b]pyridine-3-carboxamide], the IC50 is less than 500 nM.

As to `[C-]#[N+]c1cnc(-n2c(-c3ccc(S(=O)(=O)N[C@@H](C)C(F)(F)F)cn3)c(C#N)c3cc(C)cnc32)s1` [Cpd 451, 6-[3-cyano-1-(5-isocyano-1,3-thiazol-2-yl)-5-methyl-1H-pyrrolo[2,3-b]pyridin-2-yl]-N-[(2S)-1,1,1-trifluoropropan-2-yl]pyridine-3-sulfonamide], the half-maximal inhibitory concentration (IC50) is less than 500 nM. Still for that read-out and setting: in the case of `CC(C)(NS(=O)(=O)c1ccc(-c2c(C#N)c3cc(C(F)F)cnc3n2C2CCC2)nc1)C(F)(F)F` [Cpd 456, 6-[3-cyano-1-cyclobutyl-5-(difluoromethyl)-1H-pyrrolo[2,3-b]pyridin-2-yl]-N-(1,1,1-trifluoro-2-methylpropan-2-yl)pyridine-3-sulfonamide] it was less than 500 nM; in that of `N#Cc1c(-c2ccc(S(=O)(=O)NC3(C(F)(F)F)CC3)cn2)n(C2CCC2)c2ncc(C(F)F)cc12` [Cpd 457, 6-[3-cyano-1-cyclobutyl-5-(difluoromethyl)-1H-pyrrolo[2,3-b]pyridin-2-yl]-N-[1-(trifluoromethyl)cyclopropyl]pyridine-3-sulfonamide], less than 500 nM.

System in a further data set: not given
Assay: not given
Details: not given
Consider `CC(C)NS(=O)(=O)c1ccc(-c2c(C#N)c3cc(Cl)cnc3n2CC2CC2)cc1` [Cpd 1, 4-[5-chloro-3-cyano-1-(cyclopropylmethyl)-1H-pyrrolo[2,3-b]pyridin-2-yl]-N-(propan-2-yl)benzenesulfonamide], for which the melting point was 113 to 116 °C. For `COc1cnc2c(c1)c(C#N)c(-c1ccc(S(=O)(=O)NC(C)C)cc1)n2CC1CC1` [Cpd 2, 4-[3-cyano-1-(cyclopropylmethyl)-5-methoxy-1H-pyrrolo[2,3-b]pyridin-2-yl]-N-(propan-2-yl)benzenesulfonamide], the melting point was 151 to 153 °C. Still for that read-out and setting: in the case of `COc1ccc2c(n1)c(C#N)c(-c1ccc(NS(=O)(=O)C(C)C)cc1)n2CC1CC1` [Cpd 3, N-{4-[3-cyano-1-(cyclopropylmethyl)-5-methoxy-1H-pyrrolo[3,2-b]pyridin-2-yl]phenyl}propane-2-sulfonamide] it was 230 to 232 °C; in that of `CC(C)NS(=O)(=O)c1ccc(-c2c(C#N)c3cc(F)cnc3n2CC2CC2)cc1` [Cpd 4, 4-[3-cyano-1-(cyclopropylmethyl)-5-fluoro-1H-pyrrolo[2,3-b]pyridin-2-yl]-N-(propan-2-yl)benzenesulfonamide], 162 to 165 °C.
